Assay results published in US20030050242A1, “Protein polymerization inhibitors and methods of use” (priority 1999, published 2003).
Read-outs that look alike come from different tables or passages of the source. Marks after values point to notes of the source that are not given here. Ends that are not written are not given here. Peptide text beside a SMILES is read from it.

Legend:
HIV-2 = test: viral infection assay in H9 cells, reverse transcriptase (RT) activity in supernatant; type: cell-based; conditions: for Day 7 RT HIV-2 / Day 10 RT HIV-2: H9 cells, 100 μM; for effect on HIV-2 infection, in words: summary of the experiments in H9 cells
Experimental: (§1) Next, the ability of peptide agents to inhibit viral infection was evaluated. Accordingly, the peptide agents listed in Table 1 were used in several viral (e.g., HIV-1, HIV-2, and SIV) infection assays. […] Once inhibitory tripeptides were identified, more specific assays were conducted to determine the effect of varying concentrations of the selected tripeptides and combination treatments (e.g., the use of more than one modified tripeptide in combination).
(§2) To monitor the replication of virus, reverse transcriptase (RT) activity in the supernatants was assayed using a commercially available Lenti-RT activity kit. (Cavidi Tech, Uppsala, Sweden). The amount of RT was determined with the aid of a regression line of standards. […] Syncytium formation was also monitored by microscopic examination.
(§3) (Cavidi Tech). The amount of RT was determined with the aid of a regression line of standards.

SIV = test: as above; type: cell-based; conditions: for Day 7 RT SIV / Day 10 RT SIV: H9 cells, 100 μM; for effect on SIV infection, in words: summary of the experiments in H9 cells
Experimental: as §1, §2, §3

HIV-1 [1] = conditions: H9 cells, 100 μM
Experimental: Next, the ability of peptide agents to inhibit viral infection was evaluated. Accordingly, the peptide agents listed in Table 1 were used in several viral (e.g., HIV-1, HIV-2, and SIV) infection assays. The efficiency of HIV-1, HIV-2, and SIV infection was monitored by reverse transcriptase activity, the concentration of p24 protein in the cell supernatent, and by microscopic evaluation of HIV-1 syncytia formation. In initial experiments, several modified tripeptides were screened for the ability to inhibit HIV-1, HIV-2, and SIV infection in H9 cells.
In Experiments 1 and 2, approximately 200,000H9 cells were infected with HIV-1, HIV-2 or SIV at 25 TCID50 to test the inhibitory effect of the following synthesized tripeptides LKA-NH2, ILK-NH2, GPQ-NH2, GHK-NH2, GKG-NH2, ACQ-NH2, CQG-NH2, ARV-NH2, KAR-NH2, HKA-NH2, GAT-NH2, KAL-NH2, and GPG-NH2. Accordingly, the H9 cells were resuspended with or without the different peptides (approximately 100 μM) in 1 ml of RPMI 1640 medium supplemented with 10% (v/v) heat-inactivated fetal bovine serum (FBS), penicillin (100 u/ml), and streptomycin (100 u/ml), all available through GIBCO, and Polybrene (2 μg/ml), available through Sigma. Thereafter, viruses were added at 25 TCID50 in a volume of 20-30%1. Cells were incubated with virus at 37° C. for 1 hr then pelleted at 170× g for 7 minutes. The cells were then washed three times in RPMI medium without peptides at room temperature and pelleted at 170× g for 7 minutes, as above. After the final wash, the cells were resuspended in RPMI culture medium in a 24-well plate (Costar corporation) and kept at 37° C. in 5% CO2 with humidity.
Culture supernatants were collected and analyzed when the medium was changed at 4, 7, 10, and 14 days post infection. To monitor the replication of virus, reverse transcriptase (RT) activity in the supernatants was assayed using a commercially available Lenti-RT activity kit. […] The amount of RT was determined with the aid of a regression line of standards. The results are presented as absorbance values (OD) and higher absorbance indicates a higher protein concentration and greater viral infection. Syncytium formation was also monitored by microscopic examination.
In Experiment 3, (Table 5), approximately 200,000H9 cells were infected with HIV-1, HIV-2 or SIV at 25 TCID50 to test the inhibitory effect of different concentrations of peptides GPG-NH2, GKG-NH2 and CQG-NH2 and combinations of these peptides (the indicated concentration corresponds to the concentration of each tripeptide). As above, H9 cells were resuspended with or without the different peptides at varying concentrations in 1 ml of RPMI 1640 medium supplemented with 10% (v/v) heat-inactivated fetal bovine serum (FBS), penicillin (100 u/ml), and streptomycin (lOOu/ml), and Polybrene (2 μg/ml). Thereafter, viruses were added at 25 TCID50 in a volume of 20-30 μ. Cells were incubated with the indicated virus at 37° C. for 1 hr then pelleted at 170× g for 7 minutes. The cells were then washed three times in RPMI medium without peptides at room temperature and pelleted at 170× g for 7 minutes, as above. After the final wash, the cells were resuspended in RPMI culture medium in a 24-well plate (Costar corporation) and kept at 37° C. in 5% CO2 with humidity.
Culture supernatants were collected when the medium was changed at 4, 7, and 11 days post infection. As above, the replication of each virus was monitored by detecting reverse transcriptase (RT) activity in the supernatants using the Lenti-RT activity kit.

HIV-1 [2] = conditions: H9 cells, 100 μM, pos/neg
Experimental: as §1, §2

[3] = target: viral capsid protein (p24) of SIV (SIV)
[4] = target: viral capsid protein (p24) of HIV-2 (HIV-2)
HIV-1 [5] = conditions: summary of Experiments 1-6
Experimental: as §1

[6] = target: major capsid protein (p24) of HIV-1 (HIV-1, UniProt P04591); test: cell-based or functional assay
[7] = Experiment 1, higher OD = greater infection

Row | Molecule | Day 7 RT HIV-2 (HIV-2; Experiment 1) [OD] | Day 10 RT HIV-2 (HIV-2; Experiment 1) [OD] | Day 7 RT HIV-2 (HIV-2; Experiment 2) [OD] | Day 10 RT HIV-2 (HIV-2; Experiment 2) [OD] | Day 7 RT SIV (SIV; Experiment 1) [OD] | Day 10 RT SIV (SIV; Experiment 1) [OD] | Day 7 RT SIV (SIV; Experiment 2) [OD] | Day 10 RT SIV (SIV; Experiment 2) [OD] | Day 10 RT HIV-1 (HIV-1 [1]; Experiment 1) [OD] | Day 7 RT HIV-1 (HIV-1 [1]; [7]) | Day 7 RT HIV-1 (HIV-1 [1]; Experiment 2) | Day 10 RT HIV-1 (HIV-1 [1]; Experiment 2) [OD] | HIV-1 Syncytia (HIV-1 [2]; Experiment 1) | HIV-1 Syncytia (HIV-1 [2]; Experiment 2) | reverse transcriptase (RT) activity in the supernatants, Day 10 RT (OD) [3] [OD] | reverse transcriptase (RT) activity in the supernatants, Day 10 RT (OD) [4] [OD] | effect on HIV-1 infection, in words (HIV-1 [5]) | further results
1 | Iso-Leu-Lys (Ile-Leu-Lys-NH2) [ILK-NH2] | 3.467 | 2.791 | 1.692 | 2.557 | 3.180 | 2.255 | 0.515 | 2.632 | 2.033 | 0.365 OD | 0.581 OD | 2.950 | pos | pos |  |  |  | 
2 | GAT-NH2 (peptide) |  |  |  |  |  |  |  |  |  |  |  |  |  |  | 2.34 | 2.83 |  | 
3 | GPQ-NH2 (peptide) |  |  |  |  |  |  |  |  |  |  |  |  |  |  | 2.18 | 2.73 |  | 
4 | KAR-NH2 (peptide) |  |  |  |  |  |  |  |  |  |  |  |  |  |  | 1.72 | 2.64 |  | 
5 | Gly-Ala-Thr (Gly-Ala-Thr-NH2) [GAT-NH2] | 3.461 | 2.835 | 1.707 | 2.565 | 0.892 | 2.343 | 0.572 | 2.776 | 1.565 | 0.116 OD | 0.776 OD | 2.800 | pos | pos |  |  | failed to prevent infection and syncytia formation | 
6 | KAL-NH2 (peptide) |  |  |  |  |  |  |  |  |  |  |  |  |  |  | 2.52 | 2.75 |  | 
7 | Cys-Gln-Gly-NH2 (peptide) |  |  |  |  |  |  |  |  |  |  |  |  |  |  | 0.11 | 0.296 |  | 
8 | Gly-Lys-Gly-NH2 (peptide) |  |  |  |  |  |  |  |  |  |  |  |  |  |  | 0.099 | 0.147 |  | 
9 | Gly-His-Lys (Gly-His-Lys-NH2) [GHK-NH2] | 3.522 | 2.931 | 1.936 | 2.418 | 0.097 | 2.384 | 0.396 | 2.394 | 2.151 | 0.289 OD | 0.829 OD | 3.013 | pos | pos |  |  | failed to prevent infection and syncytia formation | 
10 | ARV-NH2 (peptide) |  |  |  |  |  |  |  |  |  |  |  |  |  |  | 1.17 | 3 |  | 
11 | Lys-Ala-Arg (Lys-Ala-Arg-NH2) [KAR-NH2] | 3.419 | 2.640 | 1.904 | 2.742 | 0.266 | 1.722 | 1.034 | 2.672 | 2.779 | 0.380 OD | 0.753 OD | 2.928 | pos | pos |  |  |  | 
12 | ILK-NH2 (peptide) |  |  |  |  |  |  |  |  |  |  |  |  |  |  | 2.25 | 2.79 |  | 
13 | GHK-NH2 (peptide) |  |  |  |  |  |  |  |  |  |  |  |  |  |  | 2.38 | 2.93 |  | 
14 | LKA-NH2 (peptide) |  |  |  |  |  |  |  |  |  |  |  |  |  |  | 2.45 | 2.77 |  | 
15 | ACQ-NH2 (peptide) |  |  |  |  |  |  |  |  |  |  |  |  |  |  | 2.75 | 2.75 |  | 
16 | Leu-Lys-Ala (Leu-Lys-Ala-NH2) [LKA-NH2] | 3.649 | 2.769 | 1.689 | 2.637 | 3.577 | 2.452 | 0.724 | 2.797 | 2.429 | 0.568* OD | 0.894* OD | 2.989 | pos | pos |  |  | did not prevent HIV infection | 
17 | cystyl-glutaminyl-glycine amide [CQG-NH2] |  |  |  |  |  |  |  |  |  |  |  |  |  |  |  |  | inhibited and/or prevented HIV-1 infection | effect on HIV-2 infection, in words (HIV-2): inhibit or prevent HIV-2 and SIV infection; effect on SIV infection, in words (SIV): inhibit or prevent HIV-2 and SIV infection
18 | His-Lys-Ala (His-Lys-Ala-NH2) [HKA-NH2] | 3.408 | 2.669 | 1.678 | 2.560 | 0.416 | 2.520 | 0.455 | 2.623 | 2.546 | 0.312 OD | 1.081 OD | 2.794 | pos | pos |  |  | did not prevent HIV infection | 
19 | HKA-NH2 (peptide) |  |  |  |  |  |  |  |  |  |  |  |  |  |  | 2.52 | 2.67 |  | 
20 | Lys-Ala-Leu (Lys-Ala-Leu-NH2) [KAL-NH2] | 3.372 | 2.749 | 1.757 | 2.383 | 1.091 | 2.524 | 0.511 | 2.663 | 1.995 | 0.246 OD | 0.999 OD | 2.791 | pos | pos |  |  | failed to prevent infection | 
21 | Ala-Arg-Val (Ala-Arg-Val-NH2) [ARV-NH2] | 3.380 | 3.003 | 2.237 | 2.628 | 0.210 | 1.172 | 0.212 | 3.004 | 1.528 | 0.156 OD | 0.618 OD | 2.829 | pos | pos |  |  | failed to prevent infection | 
22 | NCCCC[C@H](NC(=O)CN)C(=O)NCC(N)=O [GKG-NH2, glycyl-lysyl-glycine amide] (H-Gly-Lys-Gly-NH2) |  |  |  |  |  |  |  |  |  |  |  |  |  |  |  |  | inhibited and/or prevented HIV-1 infection | effect on HIV-2 infection, in words (HIV-2): inhibit or prevent HIV-2 and SIV infection; effect on SIV infection, in words (SIV): inhibit or prevent HIV-2 and SIV infection
23 | Gly-Pro-Gln (Gly-Pro-Gln-NH2) [GPQ-NH2] | 3.692 | 2.734 | 1.511 | 2.382 | 1.542 | 2.176 | 0.574 | 2.319 | 1.965 | 0.204 OD | 0.884 OD | 2.848 | pos | pos |  |  | did not prevent HIV infection | 
24 | Ala-Cys-Gln (Ala-Cys-Gln-NH2) [ACQ-NH2] | 3.418 | 2.753 | 1.661 | 2.505 | 1.241 | 2.746 | 0.612 | 2.606 | 0.904 | 0.117 OD | 0.606 OD | 2.831 | pos | pos |  |  | did not prevent HIV infection | 
25 | Gly-Pro-Gln-NH2 [GPQ-NH2] |  |  |  |  |  |  |  |  |  |  |  |  |  |  |  |  |  | reverse transcriptase (RT) activity in the supernatants, Day 10 RT (OD) [6]: 1.97 OD
26 | Gly-His-Lys-NH2 [GHK-NH2] |  |  |  |  |  |  |  |  |  |  |  |  |  |  |  |  |  | reverse transcriptase (RT) activity in the supernatants, Day 10 RT (OD) [6]: 2.15 OD
27 | Leu-Lys-Ala-NH2 [LKA-NH2] |  |  |  |  |  |  |  |  |  |  |  |  |  |  |  |  |  | reverse transcriptase (RT) activity in the supernatants, Day 10 RT (OD) [6]: 2.43 OD
28 | Ile-Leu-Lys-NH2 [ILK-NH2] |  |  |  |  |  |  |  |  |  |  |  |  |  |  |  |  |  | reverse transcriptase (RT) activity in the supernatants, Day 10 RT (OD) [6]: 2.03 OD
29 | Gly-Lys-Gly-NH2 [Gly-Lys-Gly-NH2] |  |  |  |  |  |  |  |  |  |  |  |  |  |  |  |  |  | reverse transcriptase (RT) activity in the supernatants, Day 10 RT (OD) [6]: 0.074 OD
